# Data from BindingDB's records for doi:10.7270/Q2QN6575 (Nmmlsc, 2011).
# Biological target: T1, Citrate synthase, peroxisomal [1-24] (Saccharomyces cerevisiae, UniProt P08679)
# T1 construct: 1-24
# Test: yeast TOR pathway CIT2-GFP reporter analogs – flow cytometry, cherry pick 3, dose response, SAR follow-up (AID 488825)
# Settings: not given
# T1 sequence (P08679 1-24): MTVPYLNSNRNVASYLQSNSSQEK
row,EC50,Compound
1,74.1 µM,"Cc1nc(Nc2ccc(Br)cc2Br)c([N+](=O)[O-])c(=O)[nH]1 [6-[[2,4-bis(bromanyl)phenyl]amino]-2-methyl-5-nitro-1H-pyrimidin-4-one]"

# Same assay, conditions: inactive by the depositor's call
row,EC50,Compound
1,58 µM,COc1ccccc1-c1cc(C(F)(F)F)nc(S(=O)(=O)CCCC(=O)O)n1 [4-[4-(2-methoxyphenyl)-6-(trifluoromethyl)pyrimidin-2-yl]sulfonylbutanoic acid]
2,3680 µM,Cc1ccc(C(=O)Nc2nc(-c3ccccn3)cs2)o1 [5-methyl-N-[4-(2-pyridinyl)-2-thiazolyl]-2-furancarboxamide]
3,300 µM,O=C(O)c1ccc2cccc(O)c2n1 [8-oxidanylquinoline-2-carboxylic acid]
4,19800 µM,Oc1c(Cl)cc(Cl)c2cccnc12 [AS-229]
5,128 µM,CCC(C)Nc1nc(N)c([N+](=O)[O-])c(Nc2ccccc2OC)n1 (stereo unspecified) [SMR000434817]
